Results published in the NIST ThermoML archive (doi:10.1021/je060271a).
“And” between values parts separate entries of the source, which are not always exact repeats. Identical values can stand only once.

Conditions: Liquid, Vibrating tube method

CCCCCCC(=O)OCC(COC(=O)CCCCCC)(COC(=O)CCCCCC)COC(=O)CCCCCC [pentaerythritol tetraheptanoate]
Conditions	mass density
343.14 K, 22987 kPa	957 kg/m3
343.14 K, 23023 kPa	956.9 kg/m3
343.14 K, 23067 kPa	956.9 kg/m3
343.14 K, 23104 kPa	956.9 kg/m3
343.14 K, 23148 kPa	957 kg/m3
343.14 K, 23186 kPa	957 kg/m3
343.14 K, 23224 kPa	956.9 kg/m3
343.14 K, 23269 kPa	957.1 kg/m3
343.14 K, 23308 kPa	957.1 kg/m3
343.14 K, 23346 kPa	957.1 kg/m3
343.14 K, 23393 kPa	957.2 kg/m3
343.14 K, 23433 kPa	957.2 kg/m3
343.14 K, 23473 kPa	957.2 kg/m3
343.14 K, 23512 kPa	957.2 kg/m3
343.14 K, 23551 kPa	957.3 kg/m3
343.14 K, 23582 kPa	957.3 kg/m3
343.14 K, 23619 kPa	957.3 kg/m3
343.14 K, 23650 kPa	957.2 kg/m3
343.14 K, 23719 kPa	957.3 kg/m3
343.14 K, 23782 kPa	957.3 kg/m3
343.14 K, 23820 kPa	957.3 kg/m3
343.14 K, 23852 kPa	957.4 kg/m3
343.14 K, 23887 kPa	957.4 kg/m3
343.14 K, 23919 kPa	957.4 kg/m3
343.14 K, 23957 kPa	957.4 kg/m3
343.14 K, 23990 kPa	957.4 kg/m3
343.14 K, 24022 kPa	957.6 kg/m3
343.14 K, 24061 kPa	957.7 kg/m3
343.14 K, 24094 kPa	957.5 kg/m3
343.14 K, 24160 kPa	957.5 kg/m3
343.14 K, 24588 kPa	957.9 kg/m3
343.14 K, 24654 kPa	957.9 kg/m3
343.14 K, 24695 kPa	958 kg/m3
343.14 K, 24730 kPa	958.1 kg/m3
343.14 K, 24765 kPa	958 kg/m3
343.14 K, 24806 kPa	958 kg/m3
343.14 K, 24840 kPa	958.1 kg/m3
343.14 K, 25030 kPa	958.1 kg/m3
343.14 K, 25067 kPa	958.2 kg/m3
343.14 K, 25103 kPa	958.2 kg/m3
343.14 K, 25183 kPa	958.1 kg/m3
343.14 K, 25215 kPa	958.2 kg/m3
343.14 K, 25436 kPa	958.5 kg/m3
343.14 K, 25465 kPa	958.5 kg/m3
343.14 K, 25501 kPa	958.5 kg/m3
343.14 K, 26973 kPa	959.4 kg/m3
343.14 K, 27040 kPa	959.4 kg/m3
343.14 K, 27491 kPa	959.6 kg/m3
343.14 K, 27527 kPa	959.7 kg/m3
343.14 K, 27558 kPa	959.9 kg/m3
343.14 K, 27645 kPa	960 kg/m3
343.14 K, 27672 kPa	959.9 kg/m3
343.14 K, 27705 kPa	959.9 kg/m3
343.14 K, 27733 kPa	959.9 kg/m3
343.14 K, 27761 kPa	959.9 kg/m3
343.14 K, 27793 kPa	959.9 kg/m3
343.14 K, 27821 kPa	959.9 kg/m3
343.14 K, 27849 kPa	960 kg/m3
343.14 K, 27937 kPa	960.1 kg/m3
343.14 K, 27971 kPa	960.1 kg/m3
343.14 K, 27998 kPa	960 kg/m3
343.14 K, 28026 kPa	960 kg/m3
343.14 K, 28060 kPa	960 kg/m3
343.14 K, 28670 kPa	960.5 kg/m3
343.14 K, 28700 kPa	960.4 kg/m3
343.14 K, 29403 kPa	960.9 kg/m3
343.14 K, 33157 kPa	963.2 kg/m3
343.14 K, 33197 kPa	963.3 kg/m3
343.14 K, 33238 kPa	963.2 kg/m3
343.14 K, 33290 kPa	963.2 kg/m3
343.14 K, 33322 kPa	963.3 kg/m3
343.14 K, 33371 kPa	963.3 kg/m3
343.14 K, 33412 kPa	963.3 kg/m3
343.14 K, 33461 kPa	963.4 kg/m3
343.14 K, 33503 kPa	963.4 kg/m3
343.14 K, 33545 kPa	963.5 kg/m3
343.14 K, 33586 kPa	963.4 kg/m3
343.14 K, 33637 kPa	963.5 kg/m3
343.14 K, 33678 kPa	963.7 kg/m3
343.14 K, 33906 kPa	963.6 kg/m3
343.15 K, 100.4 kPa	940.6 kg/m3
343.15 K, 100.5 kPa	940.6 kg/m3
343.15 K, 100.7 kPa	940.6 kg/m3
343.15 K, 100.9 kPa	940.6 kg/m3
343.15 K, 102.6 kPa	940.6 kg/m3
343.15 K, 106.3 kPa	940.6 kg/m3
343.15 K, 108.5 kPa	940.6 kg/m3
343.15 K, 111.8 kPa	940.7 kg/m3
343.15 K, 116.3 kPa	940.7 kg/m3
343.15 K, 119.8 kPa	940.6 kg/m3
343.15 K, 124 kPa	940.5 kg/m3
343.15 K, 126.8 kPa	940.6 kg/m3
343.15 K, 129.2 kPa	940.5 kg/m3
343.15 K, 131.6 kPa	940.6 kg/m3
343.15 K, 133.4 kPa	940.7 kg/m3
343.15 K, 134.8 kPa	940.8 kg/m3
343.15 K, 135.3 kPa	940.7 kg/m3
343.15 K, 136.2 kPa	940.6 kg/m3
343.15 K, 136.7 kPa	940.6 kg/m3
343.15 K, 137.7 kPa	940.7 kg/m3
343.15 K, 138.6 kPa	940.7 kg/m3
343.15 K, 139.6 kPa	940.7 kg/m3
343.15 K, 140.5 kPa	940.6 kg/m3
343.15 K, 140.7 kPa	940.8 kg/m3 and 940.7 kg/m3
343.15 K, 140.8 kPa	940.6 kg/m3
343.15 K, 141 kPa	940.7 kg/m3
343.15 K, 141.2 kPa	940.6 kg/m3
343.15 K, 141.5 kPa	940.6 kg/m3
343.15 K, 141.9 kPa	940.7 kg/m3
343.15 K, 142.4 kPa	940.7 kg/m3
343.15 K, 142.9 kPa	940.6 kg/m3
343.15 K, 143.1 kPa	940.6 kg/m3 and 940.7 kg/m3
